From patent publication US9850241B2, “Azaindole acetic acid derivatives and their use as prostaglandin D2 receptor modulators” (IDORSIA PHARMACEUTICALS LTD, priority 2014, dated 2017)

Key:
[1] = test system: primary cultured rat hepatocytes; assay: In vitro cytotoxicity in primary cultured rat hepatocytes; type: cell-based; conditions: 24 h treatment, cell morphology and LDH leakage, highest concentration 300 μM; for LCC (lowest cytotoxic concentration): "300 s" = only slight cytotoxicity at the highest test concentration
Description: In Vitro Cytotoxicity in Primary Cultured Rat Hepatocytes
Adult male Wistar rats were narcotized with sodium pentobarbital and hepatocytes were isolated according to a standard procedure, i.e. by in situ perfusion of the liver with a collagenase solution. The viability of the purified hepatocytes, checked by the trypan blue dye exclusion method was greater than 85%. The isolated hepatocytes were resuspended in standard Williams Medium E, without phenol red, supplemented (WME supp.) with transferrin (100 μg/ml), triiodothyronine (10 μg/ml), gentamicin (50 μg/ml), hydrocortison hemisuccinate (13.36 μg/ml), glucagon (5 μg/ml), HEPES (10 mM), inosin (10 μ/ml), insulin (10 μg/ml), streptomycin (100 μg/ml) and penicillin (100 U/ml) and 10% fetal bovine serum (FBS). The cells were plated in collagen-coated 24-well plates at an initial density of 2×10^5 cells/well. After 4 h for attachment to the culture-plates, the medium was aspirated and replaced by fresh WME supp. without FBS containing the test compounds and incubated for 24 h at 37° C. in a […] and 5% CO2 atmosphere. For each experiment, i.e., with each batch of hepatocytes, treatments with the test compounds were done in quadriplicate. Quadriplicate controls (treatment with the vehicle only) were also present on each culture plate.
Stock solutions of the test compounds were prepared in DMSO a few hours before treatment start. Appropriate dilutions of these stock solutions were added to the culture media just prior to the treatment in order to give final concentrations of 0, 3, 10, 30, 100 and 300 μM. The final concentration of the vehicle DMSO was 1% (v/v).
The morphology of the hepatocyte monolayers was monitored by light microscopy after 24 hours of exposure to the test compounds. Treatment related effects are described according to the following grading: • 0 No morphological alterations observed upon treatment when compared to the control cultures • 1-3 Treatment resulting in any morphological changes, e.g. intracellular granulation, vacuolization or cell death. Depending on the severity, these changes were regarded as slight (1), moderate (2) or strong (3). • K Treatment resulting in 100% dead cells and/or the complete detachment of the monolayer yielding a clear cell-free dish.
After 24 h treatment of the hepatocyte cultures, aliquots of culture medium were carefully collected and used for the analysis of lactate dehydrogenase (LDH) activity by spectrophotometry using the LDH cytotoxicity detection kit from Clontech (cat No. 630117, Mountain View, Calif., USA). For each experiment, additional cultures were used for the determination of total intracellular LDH activity at treatment start. For this purpose, 4 wells of cell culture per experiment were washed with cold saline before treatment start, sonicated in fresh medium and the homogenate was analyzed for total LDH activity. Enzyme activities in the culture media were assessed and expressed as percentage of the total activity present in the cultured hepatocytes at the beginning of the treatments.
The lowest cytotoxic concentration (LCC) and the no effect concentration (NoEC) are given for each compound, based on cell morphology and LDH leakage after 24 h treatment. LCC is defined as the lowest concentration of the test compound leading to a clear effect on the cultured rat hepatocytes (morphology grading 2 or 2-fold increase in LDH leakage). A LCC value of >300 μM indicates the absence of effect on both endpoints at the highest test concentration of 300 μM. […] NoEC is defined as the highest test concentration of the compound which was without an effect on the cultured rat hepatocytes (morphology and LDH leakage). • 3 . Results

hCRTH2 receptor [2] = target: T1, hCRTH2 receptor (Homo sapiens, UniProt Q9Y5Y4); assay: hCRTH2 receptor membranes radioligand displacement assay (3H-PGD2); type: binding; conditions: HEK293-hCRTH2 membranes, 3H-PGD2 2.5 nM, 0.1% BSA
T1 construct: expressed in transfected cells; host or cells: HEK293 (recombinant HEK293-hCRTH2), membrane fragments
T1 sequence (Q9Y5Y4 1-395): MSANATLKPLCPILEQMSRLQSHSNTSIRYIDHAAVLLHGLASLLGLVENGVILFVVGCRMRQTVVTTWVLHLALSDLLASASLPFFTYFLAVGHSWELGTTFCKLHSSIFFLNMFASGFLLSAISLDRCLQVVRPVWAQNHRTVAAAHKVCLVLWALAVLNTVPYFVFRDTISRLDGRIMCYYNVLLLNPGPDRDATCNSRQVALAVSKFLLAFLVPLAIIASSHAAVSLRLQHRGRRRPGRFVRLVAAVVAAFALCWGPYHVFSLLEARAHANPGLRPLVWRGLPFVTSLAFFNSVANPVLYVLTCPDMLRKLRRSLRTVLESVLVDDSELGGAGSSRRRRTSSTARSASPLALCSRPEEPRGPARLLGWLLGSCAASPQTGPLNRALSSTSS
Procedure: Preparation of hCRTH2 Receptor Membranes and Radioligand Displacement Assay:
(§1) First, recombinant HEK293-hCRTH2 cells were detached from culture plates into 5 ml buffer A/plate (Buffer A: 5 mM Tris, 1 mM MgCl2-6H2O pH=7.4) using a rubber policeman. Cells were then transferred into centrifugation tubes and centrifuged for 5 min at 400 g. The cell pellet was resuspended in the same buffer and tubes were frozen at 80° C. Cells were thawed and membrane fragments were generated by homogenization using a polytron homogenizer (30 seconds). The membrane fragments were then centrifuged at 3000 g for 20 minutes and resuspended in buffer C (Buffer C: 75 mM Tris, 25 mM MgCl2, 250 mM Saccharose pH 7.4). Aliquots of membrane fragements were stored at −20° C.
Binding assay was performed in a final assay volume of 250 μl. First, 25 μl of test compound, previously diluted in Binding-Buffer (Binding-Buffer: 50 mM Tris-Base, 100 mM NaCl, 1 mM EDTA, 0.1% BSA (protease free), 0.01% NaN3, 10 mM MnCl2 pH 7.0) was placed into each well. After addition of 75 μl Binding-Buffer, 50 μl of the radioligand ^3H-PGD2 (at 2.5 nM (220.000 dpm/well) from ANAWA ART0662) was added to each well. Binding assay was started by addition of 100 μl CRTH2 membrane fragments, reaching a final concentration of 20 μg/well. For non-specific binding, PGD2 was added to the reaction mixture to […] final concentration. This assay mix was incubated for 90 minutes at room temperature and then filtered through a GF/C filter 96-well plate which was pre-soaked for 3 hours in 0.5% polyethyleneimine (PEI). The filter-wells were washed three times with ice cold Binding-Buffer. Then, 40 μl of Microscint-40 (Packard) was added to each well and the retained radioactivity quantified in a Topcount (Packard).

hCRTH2 receptor [3] = target: T1, hCRTH2 receptor; assay: Radioligand displacement assay in presence of human serum albumin (HSA); conditions: Binding buffer with 0.5% HSA instead of 0.1% BSA, 3H-PGD2 2.5 nM
Procedure: as §1
Binding assay was performed in a final assay volume of 250 μl. […] After addition of 75 μl Binding-Buffer, 50 μl of the radioligand ^3H-PGD2 (at 2.5 nM (220.000 dpm/well) from ANAWA ART0662) was added to each well. Binding assay was started by addition of 100 μl CRTH2 membrane fragments, reaching a final concentration of 20 μg/well. For non-specific binding, PGD2 was added to the reaction mixture to […] final concentration. […] Then, 40 μl of Microscint-40 (Packard) was added to each well and the retained radioactivity quantified in a Topcount (Packard). […]

[4] = test system: eosinophils activated by PGD2; assay: Eosinophil shape change assay with human plasma; type: cell-based; conditions: 50% human plasma, PGD2 100 nM, shape change by forward-scatter
Procedure: Eosinophil Shape Change Assay with human Plasma
After obtaining informed consent, blood samples were drawn by venipuncture according to the protocol approved by the ethics committee of Basel, Switzerland. Polymorphonuclear leukocytes (containing eosinophils, basophils and neutrophils) were isolated using the Polymorphprep™ method (Axis-Shield). In brief, anticoagulated whole blood was layered onto a Polymorphprep gradient (density 1.113 g/ml) and centrifuged at 500 g for 30 min. The polymorphonuclear cell fraction was harvested and depleted for erythrocytes by hypotonic saline lysis. […]
Immediately after fixation with paraformaldehyde, the samples were analyzed by FACSCanto flow cytometer (BD Biosciences) and target cells were identified by their forward-scatter (FSC) and side-scatter (SSC) characteristics. […] Shape change responses, indicative of eosinophil activation, were quantified as the percent of cells with an increased forward-scatter.

Row | Compound | NoEC (no effect concentration) [1] | LCC (lowest cytotoxic concentration) [1] | IC50 (hCRTH2 receptor [2]) | IC50 (hCRTH2 receptor [3]) | IC50 [4]
1 | CN(c1nc2cc(F)ccc2o1)C1CCc2c(c3ncccc3n2CC(=O)O)C1 (stereo not shown) [drawing 13] | 100 µM | 300 s | – | – | –
2 | CN(c1nc2cc(F)ccc2o1)C1CCc2c(c3ncccc3n2CC(=O)O)C1 (stereo not shown) [Example 3, 2-(8-((5-fluorobenzo[d]oxazol-2-yl)(methyl)amino)-6,7,8,9-tetrahydro-5H-pyrido[3,2-b]indol-5-yl)acetic acid] | – | – | 31 nM | – | –
3 | CN(c1nc2ccc(Cl)cc2o1)C1CCc2c(c3ncccc3n2CC(=O)O)C1 (stereo not shown) [Example 1, 2-(8-((6-chlorobenzo[d]oxazol-2-yl)(methyl)amino)-6,7,8,9-tetrahydro-5H-pyrido[3,2-b]indol-5-yl)acetic acid] | – | – | 11 nM | 31 nM | 27 nM
4 | CN(c1nc2ccc(Cl)cc2o1)C1CCc2c(c3ncccc3n2CC(=O)O)C1 (stereo not shown) [drawing 11] | >300 µM | >300^ μM | – | – | –
5 | CN(c1nc2cc(Cl)ccc2o1)C1CCc2c(c3ncccc3n2CC(=O)O)C1 (stereo not shown) [Example 2, 2-(8-((5-chlorobenzo[d]oxazol-2-yl)(methyl)amino)-6,7,8,9-tetrahydro-5H-pyrido[3,2-b]indol-5-yl)acetic acid] | – | – | 35 nM | – | –
6 | CN(c1nc2cc(Cl)ccc2o1)C1CCc2c(c3ncccc3n2CC(=O)O)C1 (stereo not shown) [drawing 12] | 100 µM | 300 s | – | – | –
7 | CN(c1nc2ccc(Cl)cc2o1)[C@H]1CCc2c(c3cc(F)ccc3n2CC(=O)O)C1 | 30 µM | 100^ μM | – | – | –
